Activity calls are given as the source filed them. The calls are words filed in the database; no cut-off is given here.
Target: T1, E-selectin (Homo sapiens) (UniProt P16581)
T1 sequence (whole entry): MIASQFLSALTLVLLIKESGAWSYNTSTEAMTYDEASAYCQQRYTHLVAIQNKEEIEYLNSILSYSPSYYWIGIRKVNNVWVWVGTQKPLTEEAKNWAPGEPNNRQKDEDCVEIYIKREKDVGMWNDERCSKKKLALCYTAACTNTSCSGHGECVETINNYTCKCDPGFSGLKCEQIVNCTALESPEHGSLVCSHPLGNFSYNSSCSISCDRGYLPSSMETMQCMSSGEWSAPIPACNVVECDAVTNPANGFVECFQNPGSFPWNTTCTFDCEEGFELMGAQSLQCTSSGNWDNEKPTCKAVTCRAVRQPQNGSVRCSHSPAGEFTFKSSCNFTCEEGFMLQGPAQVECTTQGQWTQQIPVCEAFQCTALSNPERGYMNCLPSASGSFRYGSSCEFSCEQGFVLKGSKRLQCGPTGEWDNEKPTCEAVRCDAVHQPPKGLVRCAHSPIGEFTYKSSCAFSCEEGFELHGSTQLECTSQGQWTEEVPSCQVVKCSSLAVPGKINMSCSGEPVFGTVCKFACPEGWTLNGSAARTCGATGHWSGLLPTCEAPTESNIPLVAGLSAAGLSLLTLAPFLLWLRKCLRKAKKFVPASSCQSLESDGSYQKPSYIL
Assay: Compound was tested at 0.05-100 mM concentration to inhibit ca++ mediated binding of HL-60 cells to Selectin E adsorbed onto a multi-well plate; Active
Type: cell-based

| Activity | Structure (SMILES) |
| --- | --- |
| Active | CC(=O)N[C@H]1[C@H]([C@H](O)[C@H](O)CO)O[C@@](O[C@H]2[C@@H](O)[C@@H](CO)O[C@@H](O[C@@H]([C@H](O[C@@H]3O[C@@H](C)[C@@H](O)[C@@H](O)[C@@H]3O)[C@H](C=O)NC(C)=O)[C@H](O)CO)[C@@H]2O)(C(=O)O)C[C@@H]1O |
| Active | CC1OC(OCCOC2CC(CO)C(O)C(OCC(=O)O)C2O)C(O)C(O)C1O (stereo not drawn) |
| Active | COC1OC(C)C(O)(CC(=O)CCCOC2(C(=O)O)CC(O)C(NC(C)=O)C([C@@H](O)[C@H](O)CO)O2)C(O)C1O (stereo partly drawn) |

Source: ChEMBL document CHEMBL1128007, “Synthesis of a galactose-fucose disaccharide mimic of sialyl Lewis X” (Bioorg Med Chem Lett, 1994)
